Measurements from PubChem BioAssay AID651659 (Broad Institute, 2012).
The source made the active and inactive calls.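 Rule for the calls: active = signal drops, with AC50 within twice each sample's top valid tested dose; inconclusive = flat curve at 30 to 70% inhibition, or poor fit; inactive = signal moves against the expected drop, plus the rest.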

These compounds were tested against Mitogen-activated protein kinase 3 (Homo sapiens) (UniProt P27361) (assay: MAPK3 enzymatic activity blockade – biochemical, ADP-Glo luminescence, dry powder, set 2, selectivity assay for Dyrk1A inhibitor NFAT project, dose response (AID 651659)). Details: ERK1 kinase, 120 min.
Chain of Mitogen-activated protein kinase 3 (Homo sapiens) (P27361 whole entry, looked up): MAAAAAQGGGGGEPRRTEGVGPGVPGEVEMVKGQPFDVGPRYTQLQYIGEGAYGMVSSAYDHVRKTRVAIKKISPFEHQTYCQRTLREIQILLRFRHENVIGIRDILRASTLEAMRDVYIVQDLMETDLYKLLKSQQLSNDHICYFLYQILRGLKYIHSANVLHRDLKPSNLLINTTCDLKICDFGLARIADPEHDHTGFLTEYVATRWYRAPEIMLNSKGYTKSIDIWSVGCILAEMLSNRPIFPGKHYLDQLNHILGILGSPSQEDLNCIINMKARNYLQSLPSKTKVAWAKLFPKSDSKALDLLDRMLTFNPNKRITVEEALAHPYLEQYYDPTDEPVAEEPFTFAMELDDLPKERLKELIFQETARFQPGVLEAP

AC50 | Compound
> 20 µM (inactive) | COc1ccc(-c2csc(NC(=O)CSCC(=O)N3CCCC3)n2)cc1
5.91 µM | CN(CC(=O)Nc1nc2ccc(Cl)cc2s1)S(=O)(=O)c1ccc(C#N)cc1
> 20 µM (inactive) | CN(CC(=O)Nc1nc2ccc(F)cc2s1)S(=O)(=O)c1ccc(Cl)cc1

Same assay, conditions: ERK1 kinase, 120 min, at 1.1 µM (top of the series)

activity change, negative = inhibition | Compound
inactive | CC(C)n1cnc2cc(NCc3cccc4ccccc34)ccc21

Same assay, conditions: ERK1 kinase, 120 min, at 10 µM (top of the series)

Compound | activity change, negative = inhibition
COc1ccc2c(c1)[nH]c1c(C)nccc12 | inactive
COc1ccc(NC(=O)C2CCCN(S(=O)(=O)c3cccc4nonc34)C2)cc1 (stereo not given) | inactive
CCOc1ccc2nc(NC(=O)C3CCCN(S(=O)(=O)c4cccc5cccnc45)C3)sc2c1 (stereo not given) | inactive
COc1ccc2nc(NC(=O)C3CCCN(S(=O)(=O)c4cccc5nsnc45)C3)sc2c1 (stereo not given) | inactive
Clc1ccc(CSc2nc(Nc3ccc4c(c3)OCO4)c3ccccc3n2)cc1 | inactive
COc1ccc(OC)c(C2=Nn3c(nnc3-c3ccccn3)SC2)c1 | inactive
CN(CC(=O)Nc1nc2ccc(Cl)cc2s1)S(=O)(=O)c1ccc(Cl)cc1 | inactive
COc1ccc2c(Cl)c(C(=O)NCc3ccccc3)sc2c1 | inactive
COc1ccc(C2=Nn3c(nnc3-c3ccncc3)SC2)cc1 | inactive
COc1cccc(C2=Nn3c(nnc3-c3ccccc3)SC2)c1 | inactive
CN(CC(=O)Nc1nc2ccccc2s1)S(=O)(=O)c1ccc(Cl)cc1 | inactive
COc1ccc2nc(NC(=O)C3CCN(S(=O)(=O)c4cccc5nsnc45)CC3)sc2c1 | inactive
Cc1csc(NC(=O)C2CCCN(S(=O)(=O)c3cccc4nonc34)C2)n1 (stereo not given) | inactive
COc1ccc2c(Cl)c(C(N)=O)sc2c1 | inactive
COc1ccc2c(Cl)c(C(=O)NCc3cccnc3)sc2c1 | inactive
COc1ccc(C2=Nn3c(nnc3-c3cccnc3)SC2)cc1OC | inactive
CN(CC(=O)Nc1nc2ccccc2s1)S(=O)(=O)c1ccccc1 | inactive
O=C(NCc1ccco1)c1sc2ccccc2c1Cl | inactive
Cc1ccc(S(=O)(=O)N(C)CC(=O)Nc2nc3ccccc3s2)cc1 | inactive
O=C(NCc1ccccc1)c1sc2ccccc2c1Cl | inactive
COc1ccc(S(=O)(=O)N2CCCC(C(=O)Nc3nc4ccccc4s3)C2)cc1 (stereo not given) | inactive
CCOc1ccc2nc(NC(=O)COc3ccc(Cl)c(OC)c3)sc2c1 | inactive
COc1ccc(OC)c(C2=Nn3c(nnc3-c3ccccc3)SC2)c1 | inactive
COc1ccc2nc(NC(=O)C3CCN(S(=O)(=O)c4cccnc4)CC3)sc2c1 | inactive

Second part, the compound after the results:

activity change, negative = inhibition | Compound
inactive | CCCCN(c1nc2ccccc2s1)S(=O)(=O)c1ccc(Cl)cc1
inactive | Cc1ccccc1S(=O)(=O)Cc1ccc(C(=O)NC(C)c2ccc3c(c2)OCCO3)o1 (stereo not given)
inactive | CN(CC(=O)Nc1nccs1)S(=O)(=O)c1ccc(Cl)cc1
inactive | COc1ccc2nc(NC(=O)C3CCN(S(=O)(=O)c4ccc(C)cc4)CC3)sc2c1
inactive | C=CCn1cnc2scc(-c3ccc(OC)cc3)c2c1=O
inactive | Cc1ccc(S(=O)(=O)N(C)CC(=O)Nc2nc3ccc(Cl)cc3s2)cc1C
inactive | COc1ccc(C2=Nn3c(nnc3-c3cccnc3)SC2)cc1
inactive | Cc1cccc2sc(NC(=O)CN(C)S(=O)(=O)c3ccc(Cl)cc3)nc12
inactive | COc1ccc(CNC(=O)c2sc3ccccc3c2Cl)cc1
inactive | COc1ccc2nc(NC(=O)CN(C)S(=O)(=O)c3ccc(F)cc3)sc2c1
inactive | COc1ccc(OC)c(CNC(=O)c2sc3ccccc3c2Cl)c1
inactive | COc1ccc2c(Cl)c(C(=O)NC(C)C)sc2c1
inactive | COc1ccc2nc(NC(=O)C3CCN(S(=O)(=O)c4cccc5nonc45)CC3)sc2c1
inactive | COc1ccc2nc(NC(=O)C3CCCN(S(=O)(=O)c4cccc5nonc45)C3)sc2c1 (stereo not given)
inactive | Cc1sc(NC(=O)CSCc2ccccc2)nc1-c1ccccc1
inactive | COc1ccc(OC)c(C2=Nn3c(nnc3-c3ccncc3)SC2)c1
inactive | COc1ccc2nc(NC(=O)C3CCCN(S(=O)(=O)c4cccc5cccnc45)C3)sc2c1 (stereo not given)
